US20210309860A1, “ANTHRAQUINONIC DERIVATIVES AND THEIR USE AS COLOURING AGENTS” (PILI, priority 2018, published 2021)

Experiments:
[1] = UV-Visible analysis in methanol; format: physicochemical; conditions: for Colour: methanol solution; for log ε / λmax visible / L1/2: methanol; for log ε: log of average molar extinction coefficient, characterizes the strength of the colour; for λmax visible: maximum absorption in visible spectra 400-800 nm, 1 cm quartz cuvette, characterizes the colour; for L1/2: width measured at A/2, characterizes the brilliance of the colour
Protocol: UV-Visible analysis was carried on a Genesys10 UV photometer and recorded with the help of “VisionLite Scan” software. For each molecule, a certain amount was weighed with a precision balance and fully dissolved (under sonication if necessary) in methanol to obtain a mother solution at 1 mg/mL. Serial dilutions were performed to obtain samples in a range from 0.0025 mg/mL to 0.5 mg/mL. Samples were analyzed from 190 to 800 nm in a 1 cm quartz cuvette. For each concentration, the wavelength of maximum absorption in the visible spectra (400-800 nm) was recorded with a precision of 2 nm, and the width was measured at A/2. Additionally, molar extinction coefficient ε was calculated for each sample and the log of the average value presented. λmax visible characterizes the colour, L1/2 characterizes the brilliance of the colour, ε characterizes the strength of the colour.

[2] = Experimental log P octanol/water by UV-Vis spectroscopy assay; conditions: octanol/water (1:1), pH 7
[3] = pH 7

Row | Colour [1] | log ε [1] | λmax visible [1] [nm] | L1/2 [1] [nm] | logP at 6 h [2] | Measured logP [3] | Molecule
1 | Stronger yellow | 3.62 | 406 | 81 | – | – | COc1cc(C)c2c(c1)C(=O)c1cccc(O)c1C2=O [Compound 6, 8-hydroxy-3-methoxy-1-methyl-anthracene-9,10-dione, reference compound]
2 | Purple | 3.25 | 518 | 106 | – | – | Cc1c(C(=O)O)c(O)c(N)c2c1C(=O)c1c(O)ccc(N)c1C2=O [Compound 19b, 4,5-diamino-3,8-dihydroxy-1-methyl-9,10-dioxo-anthracene-2-carboxylic acid]
3 | “Carmine-like” red | 2.25 | 480 | 104 | – | – | Cc1cc(Nc2ccccc2)cc2c1C(=O)c1c(O)cccc1C2=O [Compound 9, 3-anilino-8-hydroxy-1-methyl-anthracene-9,10-dione]
4 | Purple | 3.41 | 498 | 100 | – | – | Cc1cc(O)c(N)c2c1C(=O)c1c(O)cccc1C2=O [Compound 17b, 1-amino-2,5-dihydroxy-4-methyl-anthracene-9,10-dione]
5 | Purple | 2.46 | 524 | 94 | – | – | Cc1cc(NC2CCCCC2)cc2c1C(=O)c1c(NC3CCCCC3)cccc1C2=O [Compound 12, 3,8-bis(cyclohexylamino)-1-methyl-anthracene-9,10-dione]
6 | Orange | 2.44 | 452 | 142 | – | – | Cc1cc(N)cc2c1C(=O)c1c(O)cccc1C2=O [Compound 8, 3-amino-8-hydroxy-1-methyl-anthracene-9,10-dione]
7 | – | – | – | – | – | 3.7 | Quinizarin

Continued, molecule first:

Row | Molecule | Colour [1] | log ε [1] | λmax visible [1] [nm] | L1/2 [1] [nm] | logP at 6 h [2] | Measured logP [3]
8 | O=C1c2ccccc2C(=O)c2c1ccc(O)c2O [Alizarin] | – | – | – | – | 2.8 | –
9 | Cc1cc(O)cc2c1C(=O)c1c(O)cccc1C2=O [Compound 5, 3,8-dihydroxy-1-methyl-anthracene-9,10-dione, reference compound] | Yellow | 3.5 | 408 | 94 | 3.2 | –
10 | CC(=O)Nc1cccc(Nc2cc(C)c3c(c2)C(=O)c2cccc(Nc4cccc(NC(C)=O)c4)c2C3=O)c1 [Compound 11, N-(3-((6-(3-acetamidoanilino)-8-methyl-9,10-dioxo-1-anthryl)amino)phenyl) Acetamide] | Purple | 2.8 | 510 | 128 | – | –
11 | Cc1cc(O)c2c(c1)C(=O)c1cccc(O)c1C2=O [Chrysophanic acid] | – | – | – | – | 4 | –
12 | Cc1ccc(S(=O)(=O)Oc2cccc3c2C(=O)c2c(C)cc(Nc4ccccc4)cc2C3=O)cc1 [Compound 14, (6-anilino-8-methyl-9,10-dioxo-1-anthryl)-4-methylbenzenesulfonate] | Red-purple | 3.12 | 508 | 104 | – | –
13 | Cc1c(C(=O)O)c(O)cc2c1C(=O)c1c(O)cccc1C2=O [Compound 7, 3,8-dihydroxy-1-methyl-9,10-dioxo-anthracene-2-carboxylic acid, reference compound] | Yellow | 3.9 | 408 | 86 | – | –
14 | Cc1cc(Nc2ccccc2)cc2c1C(=O)c1c(Nc3ccccc3)cccc1C2=O [Compound 10, 3,8-dianilino-1-methyl-anthracene-9,10-dione] | Purple/red purplish | 2.72 | 496 | 152 | – | –
15 | O=C1c2cccc(O)c2C(=O)c2c(O)cccc21 [1,8-dihydroxy anthraquinone] | – | – | – | – | 3.4 | –
